Data from patent publication US10640533B2, “Epoxyketone compounds for enzyme inhibition” (CENTRAX INTERNATIONAL, INC., priority 2014, dated 2020).
In brackets after ≈: the same amount, converted by molar mass. Where two headings read alike, the source gives them in different places.

What was measured:
[1] = target: Constitutive 20S proteasome chymotrypsin-like (CT-L) activity (Homo sapiens (Human), UniProt P20618+P28074); experiment: Constitutive 20S proteasome CT-L activity inhibition, fluorogenic substrate succinyl-Leu-Leu-Val-Tyr-AMC; assay type: biochemical
Description: (§1) Inhibition of the 20S proteasome can be determined by methods and assays known in the art, for example, as disclosed by Stein et al., Biochemistry (1996), 35, 3899-3908; by Lightcap et al., Clinical Chemistry, 2000, 46, 673-683; by Kisselev et al., Journal of Biological Chemistry. (2006), 281, 8582-8590 and in U.S. application Ser. No. 09/569,748. The chymotrypsin-like (CT-L), peptidylglutamyl peptide hydrolyzing (PGPH) and trypsin-like (T-L) activities of the 20S proteasome are measured with a fluorogenic substrate assay method using succinyl-Leu-Leu-Val-Tyr-AMC, Z-Leu-Leu-Glu-AMC and Boc-Leu-Arg-Arg-AMC, respectively, as the substrates in an assay buffer. The free fluorophore 7-Amino-4-methylcoumarin (AMC) after cleavage from the substrates is quantified using a fluorometer and activity of CT-L, PGPH and T-L of 20S proteasome is determined.
(§2) Inhibition of the chymotrypsin-like (CT-L), peptidylglutamyl peptide hydrolyzing activity (PGPH), and trypsin-like (T-L) activities of the 20S proteasome in enzymatic assays were determined using succinyl-Leu-Leu-Val-Tyr-AMC (10 μmol/L), Z-Leu-Leu-Glu-AMC (10 μmol/L) and Boc-Leu-Arg-Arg-AMC (50 μmol/L), respectively, as the substrates with purified human 20S proteasome at 2, 4 and 8 nmol/L, respectively, in the assay buffer containing 25 mM HEPES (pH7.5), 0.5 mM EDTA, 0.002% sodium dodecyl sulfate (SDS) and 0.05% NP-40. Stock solutions of the 20S proteasome inhibitors disclosed herein were prepared in dimethyl sulfoxide (DMSO) and the final DMSO concentration in the assay mixture was 1%. Reaction was conducted at room temperature for one hour. Proteasome activity was measured based on detection of the fluorophore 7-Amino-4-methylcoumarin (AMC) after cleavage from the substrates with a plate-based spectrofluorometer.

[2] = tested on: CT-L activity of the 20S proteasome in blood samples; experiment: Inhibition of proteasome CT-L activity in blood samples from dosed Balb/c mice; assay type: in vivo; settings: one hour after dosing, vs vehicle
Description: (§3) The proteasome activity in the blood samples collected from mice administrated of the vehicle was considered as 100% (control group). The remaining activity was calculated by comparing the proteasome activity in the blood samples collected from mice administrated of a compound described herein via intravenous injection (IV) at 10 mg/kg or via oral gavage (PO) at 30 mg/kg to the control group.
(§4) Balb/c mice were administered of either a vehicle (20% (w/v) hydroxypropyl-β-cyclodextrin in 10 mM sodium citrate at pH3.5), or a compound described herein at a tolerated dose via intravenous injection at 10 mg/kg or oral gavage at 30 mg/kg. One hour after dosing, whole blood samples were collected into tubes containing sodium heparin by cardiac puncture and centrifuged at 150×g for 5 minutes at 4° C. The resulting pellet was washed using ice-cold phosphate buffered saline (PBS) three times. […] The concentration of the blood lysate was measured by BCA method. […] The free AMC fluorescence was quantified using a 360/460 nm filter set in a fluorometer to measure the CT-L, PGPH or T-L activities of the 20S proteasome. Percent inhibition of the proteasome activity was calculated by comparing the samples collected from the mice administrated of a compound described herein to the samples collected from the mice administrated of the vehicle. […]

[3] = target: 20S Immunoproteasome trypsin-like (T-L) activity (Homo sapiens (Human), UniProt P40306+P49720); experiment: 20S immunoproteasome T-L activity inhibition, fluorogenic substrate Boc-Leu-Arg-Arg-AMC; assay type: biochemical; settings: purified human 20S proteasome, room temperature, one hour
Description: as §1, §2

[4] = target: Constitutive 20S proteasome trypsin-like (T-L) activity (Homo sapiens (Human), UniProt P49720+Q99436); experiment: Constitutive 20S proteasome T-L activity inhibition, fluorogenic substrate Boc-Leu-Arg-Arg-AMC; assay type: biochemical
Description: as §1, §2

[5] = target: 20S Immunoproteasome peptidylglutamyl peptide hydrolyzing (PGPH) activity (Homo sapiens (Human), UniProt P28065+P40306); experiment: 20S immunoproteasome PGPH activity inhibition, fluorogenic substrate Z-Leu-Leu-Glu-AMC; assay type: biochemical; settings: purified human 20S proteasome, room temperature, one hour
Description: as §1, §2

[6] = target: 20S Immunoproteasome chymotrypsin-like (CT-L) activity (Homo sapiens (Human), UniProt P20618+P28062); experiment: 20S immunoproteasome CT-L activity inhibition, fluorogenic substrate succinyl-Leu-Leu-Val-Tyr-AMC; assay type: biochemical; settings: purified human 20S proteasome, room temperature, one hour
Description: as §1, §2

[7] = target: Constitutive 20S proteasome peptidylglutamyl peptide hydrolyzing (PGPH) activity (Homo sapiens (Human), UniProt P28072+Q99436); experiment: Constitutive 20S proteasome PGPH activity inhibition, fluorogenic substrate Z-Leu-Leu-Glu-AMC; assay type: biochemical; settings: purified human 20S proteasome, room temperature, one hour
Description: as §1, §2

[8] = Aqueous solubility of the compounds; assay type: physicochemical; settings: 50 mM citrate buffer, pH 4, aqueous buffer, thermodynamic from solid, 50 mM citrate pH4.0, 25° C.
Description: To determine the solubility of the compounds, 1-5 mg of a compound was weighed into a vial. 1 mL of aqueous buffer (50 mM citrate at pH4.0) was added. The vial was shaken at 25° C. for 24 hours and then centrifuged for 10 min at 10000 rpm. The supernatant was filtered through a 0.45 μm membrane filter and analyzed for the concentration of the compound. In certain embodiments, the aqueous solubility of the compounds is described herein in Table 1.

[9] = tested on: T-L activity of the 20S proteasome in blood samples; experiment: Inhibition of proteasome T-L activity in blood samples from dosed Balb/c mice; assay type: in vivo; settings: intravenous 10 mg/kg or oral gavage 30 mg/kg (route not given), one hour after dosing, vs vehicle
Description: as §3, §4

[10] = form of 20S proteasome not stated, 'below about'
[11] = purified human 20S proteasome, room temperature, one hour, read-out: Proteasome inhibition IC50 (nM) Constitutive 20S proteasome CT-L
[12] = purified human 20S proteasome, room temperature, one hour, read-out: Proteasome inhibition IC50 (nM) Constitutive 20S proteasome T-L

IC50 [1, 10]	IC50 [1, 11]	IC50 [3]	IC50 [4, 12]	IC50 [5]	IC50 [6]	IC50 [7]	solubility at 24 h [8]	IC50 ([4]; form of 20S proteasome not stated, 'below about', read-out: concentration showing inhibition of T-L activity of the 20S proteasome)	SMILES	inhibition of CT-L activity in blood samples ([2]; oral gavage at 30 mg/kg)	inhibition of T-L activity in blood samples [9]	inhibition of CT-L activity in blood samples ([2]; intravenous 10 mg/kg or oral gavage 30 mg/kg (route not given))
< 50 nM	14.2 nM	> 20000 nM	> 20000 nM	> 20000 nM	11.1 nM	> 20000 nM	520 µg/mL (≈ 786 µM)		COC[C@H](NC(=O)[C@H](CCc1ccccc1)NC(=O)c1cc(CN2CCOCC2)on1)C(=O)N[C@@H](Cc1ccccc1)C(=O)[C@@]1(C)CO1 [CX13-603]	inhibited the CT-L activity in blood samples		
< 5 nM	3.73 nM	542 nM	490 nM	> 20000 nM	4.26 nM	> 20000 nM	1430 µg/mL (≈ 2090 µM)	< 500 nM	COC[C@H](NC(=O)[C@H](CCc1ccccc1)NC(=O)Cc1ccc(CN2CCOCC2)cc1)C(=O)N[C@@H](Cc1ccccc1)C(=O)[C@@]1(C)CO1 [CX13-608]		inhibited both CT-L and T-L activity	inhibited both CT-L and T-L activity
